The text below walks through data of patent US5641861A, “μopioid receptor ligands: agonists and antagonists” (Torrey Pines Institute For Molecular Studies, priority 1995, dated 1997).

Where no end group is shown, it is not given here. [ ]: non-standard residue; d: D form.

One assay has as its system guinea-pig ileum. The conditions noted are these: inhibition of electrically stimulated contraction; read-out: GPI IC50.
The subject of another assay is mouse vas deferens. The assay can be described thus: Mouse vas deferens (MVD) bioassay. The conditions noted are these: inhibition of electrically stimulated contraction. The source says:
The mouse vas deferens (MVD) bioassay was also used to determine whether a peptide is an opioid agonist or an opiod antagonist. Again, such information is not available from the radioreceptor binding assay results.
The MVD assay (Henderson et al., Br. J. Pharma. 12:119-127 (1957), which is incorporated herein by reference) is another one of the most widely used assays for the determination of opioid activities in vitro. This assay, like the GPI assay, is based on the ability of opioid agonists to inhibit electrically stimulated contractions in tissue. The MVD assay is also not "clean" in that, in addition to the predominant δ receptor, the μ and κ receptors are also present. […]
Mouse vasa deferentia were dissected and placed in Krebs solution. The responses of the longitudinal muscle were recorded under a basal tension of 0.5 g and excited by pulses of 1 millisecond duration.
In all bioassays, a dose-response curve with a reference compound (e.g., [D-Ala^2, Leu^5 ]enkephelinamide or U50,488) is used in each preparation. […] Potencies of new compounds to be tested are determined relative to that of the reference compound, and their IC50 values are normalized based on an average IC50 value which has been obtained for the reference compound by performance of many determinations with a large number of preparations. […]

In the next assay the target is T1, μ receptor (Homo sapiens, UniProt P35372).
T1 construct: An adenylyl cyclase assay using human SH-SY5Y neuroblastoma cell line membranes; endogenous in cells; host or cells: human SH-SY5Y neuroblastoma cells, retinoic-acid differentiated; membranes
T1 sequence (P35372 whole entry): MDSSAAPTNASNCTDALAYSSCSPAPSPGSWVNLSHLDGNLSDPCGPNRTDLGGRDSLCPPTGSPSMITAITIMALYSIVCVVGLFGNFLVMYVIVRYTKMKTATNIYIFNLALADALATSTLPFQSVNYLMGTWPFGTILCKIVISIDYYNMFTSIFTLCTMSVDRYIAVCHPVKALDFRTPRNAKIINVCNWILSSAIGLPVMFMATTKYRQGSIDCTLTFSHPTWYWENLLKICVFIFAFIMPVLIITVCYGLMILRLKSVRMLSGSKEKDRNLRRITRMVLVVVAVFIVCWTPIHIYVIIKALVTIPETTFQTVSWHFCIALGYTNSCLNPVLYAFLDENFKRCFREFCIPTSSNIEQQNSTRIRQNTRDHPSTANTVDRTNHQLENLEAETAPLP
The assay can be described thus: Adenylyl cyclase assay, SH-SY5Y neuroblastoma cell membranes. The class given is biochemical. The conditions noted are these: AGONISTS section; cyclic AMP level, agonist alone at 100 μM.

The next assay concerns the target T2, κ receptors (Cavia porcellus, UniProt P41144).
T2 construct: tissue homogenates prepared from guinea pig brains (cortex and cerebellum); tissue Harlan Bioproducts for Science; host or cells: guinea pig brain (cortex and cerebellum) homogenate
Description: Radioreceptor assay selective for κ receptors ([3H]-U69,593). It counts as binding, guinea pig. The following applies: ratio of IC50 values. The method, then: Assays selective for κ receptors were carried out using [^3 H]-U69,593 (3 nM, specific activity 62 Ci/mmol) as the radioligand and tissue homogenates prepared from guinea pig brains (cortex and cerebellum) using Tris buffer containing 100 μM PMSF, 5 mMMgCl2 and 1 mg/ml BSA, pH 7.4. Sample tubes were incubated for 2.5 hr.

The next assay addresses T3, δ receptors (Rattus norvegicus, UniProt P33533).
T3 construct: Radioreceptor assays selective for δ receptors were performed using rat brain homogenates; tissue Harlan Bioproducts for Science; host or cells: rat brain crude membrane homogenate
Description: Radioreceptor assay selective for δ receptors ([3H]-naltrindole). The conditions noted are these: ratio of IC50 values. It counts as binding. The protocol: Radioreceptor assays selective for δ receptors were performed using rat brain homogenates as above and [^3 H]-naltrindole (0.5 nM, specific activity 34.7 Ci/mmol) as radioligand in Tris buffer containing 100 μM phenylmethylsulfonyl fluoride (PMSF), 5 mMMgCl2 and 1 mg/ml bovine serum albumin (BSA), pH 7.4. Samples were incubated for 2.5 hr. Standard curves were prepared using 0.10-3200 nM [^3 H]-D-Pen2, Pen5 ]-enkephalin ([^3 H]-DPDPE).

The subject of the next assay is MU RECEPTOR
Description: Agonist or antagonist activity by adenylyl cyclase assay or GPI assay (not specified which). The following applies: Table 13.

T2 sequence (P41144 whole entry): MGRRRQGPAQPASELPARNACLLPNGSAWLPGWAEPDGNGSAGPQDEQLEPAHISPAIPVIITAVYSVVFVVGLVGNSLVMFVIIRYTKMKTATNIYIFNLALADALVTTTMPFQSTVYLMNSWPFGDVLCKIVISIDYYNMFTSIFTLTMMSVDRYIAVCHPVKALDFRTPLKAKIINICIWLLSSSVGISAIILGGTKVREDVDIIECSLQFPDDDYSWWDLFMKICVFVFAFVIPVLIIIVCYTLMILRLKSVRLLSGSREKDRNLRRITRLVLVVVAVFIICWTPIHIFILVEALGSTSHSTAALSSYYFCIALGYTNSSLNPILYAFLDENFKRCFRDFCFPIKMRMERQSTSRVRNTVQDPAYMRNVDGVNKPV
T3 sequence (P33533 whole entry): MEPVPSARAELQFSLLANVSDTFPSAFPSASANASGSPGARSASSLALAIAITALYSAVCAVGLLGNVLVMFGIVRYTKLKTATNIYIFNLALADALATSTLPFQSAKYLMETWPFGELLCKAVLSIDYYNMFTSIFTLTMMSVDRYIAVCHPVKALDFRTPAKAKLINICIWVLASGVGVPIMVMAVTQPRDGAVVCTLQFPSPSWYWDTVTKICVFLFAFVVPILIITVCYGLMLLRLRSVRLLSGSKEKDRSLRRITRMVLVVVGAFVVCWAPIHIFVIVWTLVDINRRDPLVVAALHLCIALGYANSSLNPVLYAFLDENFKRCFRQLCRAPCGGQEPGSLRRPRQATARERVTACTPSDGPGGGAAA
Description for guinea-pig ileum: The GPI assay (Kosterlitz et al., Br. J. Pharam. 39:398-418 (1970), which is incorporated herein by reference), is one of the most widely used assays for the determination of opioid activities in vitro. The assay is based on the ability of opioid agonists to inhibit electrically stimulated contraction in tissue. GPI is not a "clean" assay insofar as the ileum preparation contains both μ and κ receptors. However, μ receptor mediated-effects in the GPI can be distinguished from κ receptor mediated effects by determining Ke values for naloxone as the antagonist (μ effects: Ke ~1-3 nM); κ effects: Ke ~20-30 nM) or by using specific μ or κ antagonists.
The guinea pigs were killed by decapitation. […] Isometric contractions were measured via strain gauge force transducers and recorded on stripchart recorders.
In all bioassays, a dose-response curve with a reference compound (e.g., [D-Ala^2, Leu^5 ]enkephelinamide or U50,488) is used in each preparation. […] Ke values for naloxone or other antagonists are determined from the ratio of IC50 values (DR) obtained with the peptide under investigation in the presence and absence of a fixed concentration of the antagonist, using the formula Ke =a/(DR-1) ("a"=fixed concentration). A log dose-response curve is obtained with [Leu^5 ]enkephalin for each ileum and vas deferens preparation and the IC50 value is determined. […]
Description for μ receptor: An adenylyl cyclase assay using human SH-SY5Y neuroblastoma cell line membranes was used to rapidly determine the opioid agonists or antagonist properties of individual peptides. Opioid agonist inhibit adenylyl cyclase activity, resulting in reduced levels of cyclic AMP.
Cell membranes were prepared for use in the adenylyl cyclase assays as previously described (Law et al., Mol. Pharmacol., 23:26-35 (1983), which is herein incorporated by reference). After the initial centrifugation at 200×g for 15 min at 4° C., the cells were resuspended in sucrose buffer (0.32M sucrose, 40 mM HEPES, 2 mMEGTA, pH 7.6). Cells were centrifuged again at 200×g, then homogenized in sucrose buffer with five strokes of a Dounce Homogenizer (Wheaton Instruments, Millville, N.J.). […]
SH-SY5Y membranes were incubated in a final volume of 100 μl of 40 mM HEPES, pH 7.7, containing 15 units of creatine phosphokinase, 20 mM phosphocreatine, 1 mM 1,10-o-phenanthroline, 60 μM isobutylmethylxanthine (IBMX), 50 μM ATP, 50 μM GTP, 3 mM MgCl2 and 100 mM NaCl. […] The amount of cyclic AMP present in 100 μl of the supernatant, equivalent to the cyclic AMP produced by 15 μg of membrane protein, was determined using a cyclic AMP kit (Diagnostic Products, Los Angeles, Calif.). […] The final supernatants were counted in 10 ml of Ecolite (+) scintillation fluid (ICN Pharmaceuticals, Covina, Calif.).

Broadly, the IC50 is the concentration at which inhibition is half-maximal. With WWPKHK-NH2 [SEQ ID NO. 50], the concentration for half-maximal inhibition (IC50) in the assay with guinea-pig ileum was 0.27 ± 0.019 µM; with mouse vas deferens, 0.045 ± 0.007 µM.

Regarding `C[C@@H](NC(=O)[C@@H](N)Cc1ccc(O)cc1)C(=O)NCC(=O)N(C)[C@@H](Cc1ccccc1)C(=O)NCCO` [DAMGO, [D-Ala^2, MePhe^4, Gly-ol^5]enkephalin], the “% Basal Control” value on μ receptor was determined as 34 ± 6%.

Regarding Trp--Trp--Pro--Arg--NH2 [SEQ ID NO. 69], at κ receptors, the κ/μ is recorded as 2,060. Further, the δ/μ at δ receptors was 1,740.

With “(D)Ile--(D)Met--(D)Thr--(D)Trp--Gly--(D)Pro--NH2 ([dI][dM][dT][dW]G[dP]-NH2; N-terminus assumed; SMILES CC[C@@H](C)[C@@H](N)C(=O)N[C@H](CCSC)C(=O)N[C@@H](C(=O)N[C@H](Cc1c[nH]c2ccccc12)C(=O)NCC(=O)N1CCC[C@@H]1C(N)=O)[C@H](C)O) [SEQ ID NO. 130]”, in the assay on MU RECEPTOR, the “AGONIST OR ANTAGONIST” value is given as “Agonist”.
